The values below are quoted from earlier work in patent US12357619B2, “Noradrenergic and specific serotonergic anxiolytic and antidepressant, method for the production and use thereof” (ALLA CHEM, LLC, priority 2020, dated 2025).

The term Ki denotes a measure of affinity in units of concentration, obtained from inhibition or displacement.

For this data set, the target named is T1, Serotonin 5-HT2C (Homo sapiens, UniProt P28335).
T1 sequence (P28335 33-458): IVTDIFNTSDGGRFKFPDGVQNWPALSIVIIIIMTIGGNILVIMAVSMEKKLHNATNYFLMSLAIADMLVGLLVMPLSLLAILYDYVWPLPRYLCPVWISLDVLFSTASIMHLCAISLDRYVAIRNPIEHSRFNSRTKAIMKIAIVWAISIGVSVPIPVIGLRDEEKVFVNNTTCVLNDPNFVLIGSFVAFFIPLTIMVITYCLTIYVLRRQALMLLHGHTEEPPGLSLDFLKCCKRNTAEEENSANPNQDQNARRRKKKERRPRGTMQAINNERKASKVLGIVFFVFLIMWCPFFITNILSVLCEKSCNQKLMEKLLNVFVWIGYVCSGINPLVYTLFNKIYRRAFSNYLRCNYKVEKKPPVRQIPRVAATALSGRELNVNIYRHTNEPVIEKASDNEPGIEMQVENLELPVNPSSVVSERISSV
To be noted: from en.wikipedia.org/wiki/Mirtazapine; cited from earlier work.

For the compound `CN1CCN2c3ncccc3Cc3ccccc3C2C1` (stereo not shown) [Mirtazapine], the Ki is 8.9 to 39 nM.
